US20020137929A1, “1 - (3-heterocyclylphenyl) isothiourea, -isourea, -guanidine and -amidine herbicidal agents” (Intellectual Property Department, BASF Aktiengesellschaft, priority 1998, published 2002)

Tests used:
[1] = tested on: ECHORC (Watergrass (Calif.)); assay: Preemergence weed control under flooded paddy conditions; type: in vivo, Echinochloa oryzoides; conditions: rated 3-4 weeks after treatment
Outline: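 Visual injury scored 0-9 against control three to four weeks post-treatment, greenhouse-grown. Application: acetone/water (50/50) solutions dosed directly into flood water (1.5-3 cm over silt loam, planted top 0.5 cm), roughly 0.0313 to 0.500 kg/ha active ingredient.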

CASOB (Sicklepod) = assay: Postemergence herbicidal evaluation; type: in vivo, Cassia obtusifolia; conditions: postemergence
Outline: (§1)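 Each compound, dispersed in an acetone/water mix (50/50) carrying 0.5% TWEEN 20, is nozzle-sprayed at 40 psi on approximately two-week-old seedlings at about 0.0156–0.500 kg/ha. Plants are assessed 4–5 weeks afterward on a 0–9 scale relative to control; duplicate tests are averaged.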

ABUTH (Velvetleaf) = assay: Postemergence herbicidal evaluation; type: in vivo, Abutilon theophrasti; conditions: postemergence
Outline: as §1

[2] = tested on: TRZAWR (Wheat, Winter, cv Riband); assay: Preemergence herbicidal evaluation; type: in vivo, Triticum aestivum; conditions: rated 4-5 weeks after treatment
Outline: (§2)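 Scores use a 0–9 visual scale covering stand, vigor, malformation, size and chlorosis relative to controls, rated four to five weeks after treatment. Before emergence, soil-planted seeds were sprayed with compound in aqueous acetone at roughly 0.0156–0.500 kg/ha and held in the greenhouse.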

[3] = tested on: SAGPY (Arrowhead (Pygmaea)); assay: Preemergence weed control under flooded paddy conditions; type: in vivo, Sagittaria pygmaea; conditions: rated 3-4 weeks after treatment
Outline: (§3)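 Using flooded silt loam (water 1.5 to 3 cm deep), seeds sown in the top 0.5 cm were exposed preemergence to compound pipetted into the flood at about 0.0313 to 0.500 kg/ha. Effects were scored 0-9 by eye three to four weeks later.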

ECHCG (Barnyardgrass) = assay: Postemergence herbicidal evaluation; type: in vivo, Echinochloa crus-galli; conditions: postemergence
Outline: as §1

ORYSAT (Rice, Tebonnet) = assay: Preemergence herbicidal evaluation; type: in vivo, Oryza sativa, (L.) Tebonnet; conditions: rated 4-5 weeks after treatment
Outline: as §2

ZEAMX (Corn, Field) = assay: Postemergence herbicidal evaluation; type: in vivo, Zea mays; conditions: postemergence
Outline: as §1

[4] = tested on: TRZAWR (Wheat, Winter, cv Riband); assay: Postemergence herbicidal evaluation; type: in vivo, Triticum aestivum; conditions: postemergence
Outline: as §1

CYPSE (Flatsedge) = assay: Preemergence weed control under flooded paddy conditions; type: in vivo, Cyperus serotinus; conditions: rated 3-4 weeks after treatment
Outline: as §3

[5] = tested on: GLXMAW (Soybean, Williams); assay: Preemergence herbicidal evaluation; type: in vivo, Glycine max, (L.) Merr. cv Williams; conditions: rated 4-5 weeks after treatment
Outline: as §2

MOOVA (Monochoria) = assay: Preemergence weed control under flooded paddy conditions; type: in vivo, Monochoria vaginalis; conditions: rated 3-4 weeks after treatment
Outline: as §3

CCOC(=O)CN1C(=O)C(CC(=O)O)SC1=Nc1cc(-n2nc(C)n(C(F)F)c2=O)c(F)cc1Cl (stereo not shown) [Compound 112, 2-{{2-Chloro-5-[4-(difluoromethyl)-4,5-dihydro-3-methyl-5-oxo-1H-1,2,4-triazol-1-yl]-4-fluorophenyl}imino}-4-oxo-3,5-thiazolidinediacetic acid, 3-ethyl ester]
ECHORC herbicidal effect rating ([1]; 0.0313 kg/ha): 0.0
ECHORC herbicidal effect rating ([1]; 0.0625 kg/ha): 3.0
ECHORC herbicidal effect rating ([1]; 0.1250 kg/ha): 3.0
ECHORC herbicidal effect rating ([1]; 0.2500 kg/ha): 3.0
herbicidal rating CASOB (CASOB (Sicklepod); rate 0.0158 kg/ha): 1.0
herbicidal rating CASOB (CASOB (Sicklepod); rate 0.0315 kg/ha): 1.0
herbicidal rating CASOB (CASOB (Sicklepod); rate 0.0630 kg/ha): 2.0
herbicidal rating ABUTH (ABUTH (Velvetleaf); rate 0.0158 kg/ha): 9.0
herbicidal rating ABUTH (ABUTH (Velvetleaf); rate 0.0315 kg/ha): 9.0
herbicidal rating ABUTH (ABUTH (Velvetleaf); rate 0.0630 kg/ha): 9.0
Preemergence herbicidal rating TRZAWR ([2]; rate 0.0313 kg/ha): 0.0
Preemergence herbicidal rating TRZAWR ([2]; rate 0.0625 kg/ha): 0.0
Preemergence herbicidal rating TRZAWR ([2]; rate 0.1250 kg/ha): 0.0
Preemergence herbicidal rating TRZAWR ([2]; rate 0.2500 kg/ha): 1.0
SAGPY herbicidal effect rating ([3]; 0.0313 kg/ha): 6.0
SAGPY herbicidal effect rating ([3]; 0.0625 kg/ha): 7.0
SAGPY herbicidal effect rating ([3]; 0.1250 kg/ha): 7.0
SAGPY herbicidal effect rating ([3]; 0.2500 kg/ha): 7.0
herbicidal rating ECHCG (ECHCG (Barnyardgrass); rate 0.0158 kg/ha): 2.0
herbicidal rating ECHCG (ECHCG (Barnyardgrass); rate 0.0315 kg/ha): 4.0
herbicidal rating ECHCG (ECHCG (Barnyardgrass); rate 0.0630 kg/ha): 4.0
Preemergence herbicidal rating ORYSAT (ORYSAT (Rice, Tebonnet); rate 0.0313 kg/ha): 0.0
Preemergence herbicidal rating ORYSAT (ORYSAT (Rice, Tebonnet); rate 0.0625 kg/ha): 0.0
Preemergence herbicidal rating ORYSAT (ORYSAT (Rice, Tebonnet); rate 0.1250 kg/ha): 0.0
Preemergence herbicidal rating ORYSAT (ORYSAT (Rice, Tebonnet); rate 0.2500 kg/ha): 2.0
herbicidal rating ZEAMX (ZEAMX (Corn, Field); rate 0.0158 kg/ha): 4.5
herbicidal rating ZEAMX (ZEAMX (Corn, Field); rate 0.0315 kg/ha): 4.5
herbicidal rating ZEAMX (ZEAMX (Corn, Field); rate 0.0630 kg/ha): 5.0
herbicidal rating TRZAWR ([4]; rate 0.0158 kg/ha): 2.0
herbicidal rating TRZAWR ([4]; rate 0.0315 kg/ha): 2.0
herbicidal rating TRZAWR ([4]; rate 0.0630 kg/ha): 3.0
CYPSE herbicidal effect rating (CYPSE (Flatsedge); 0.0313 kg/ha): 0.0
Preemergence herbicidal rating GLXMAW ([5]; rate 0.0313 kg/ha): 0.0
Preemergence herbicidal rating GLXMAW ([5]; rate 0.0625 kg/ha): 1.0
Preemergence herbicidal rating GLXMAW ([5]; rate 0.1250 kg/ha): 3.0
Preemergence herbicidal rating GLXMAW ([5]; rate 0.2500 kg/ha): 3.0
MOOVA herbicidal effect rating (MOOVA (Monochoria); 0.0313 kg/ha): 9.0
MOOVA herbicidal effect rating (MOOVA (Monochoria); 0.0625 kg/ha): 9.0
MOOVA herbicidal effect rating (MOOVA (Monochoria); 0.1250 kg/ha): 9.0
MOOVA herbicidal effect rating (MOOVA (Monochoria); 0.2500 kg/ha): 9.0

CCOC(=O)CN1C(=O)C(CC(=O)NS(=O)(=O)C(C)C)SC1=Nc1cc(-n2c(=O)cc(C(F)(F)F)n(C)c2=O)c(F)cc1Cl (stereo not shown) [Compound 117, Ethyl 2-{{2-chloro-5-[3,6-dihydro-3-methyl-2,6-dioxo-4-(trifluoromethyl)-1(2H)-pyrimidinyl]-4-fluorophenyl}imino}-5-{[(isopropylsulfonyl)-carbamoyl]methyl}-4-oxo-3-thiazolidineacetate]
herbicidal effect rating, ECHORC ([1]; 0.0313 kg/ha): 0.0
herbicidal effect rating, ECHORC ([1]; 0.0625 kg/ha): 0.0
herbicidal effect rating, ECHORC ([1]; 0.1250 kg/ha): 0.0
herbicidal effect rating, ECHORC ([1]; 0.2500 kg/ha): 0.0
herbicidal rating CASOB (CASOB (Sicklepod); rate 0.0158 kg/ha): 0.0
herbicidal rating CASOB (CASOB (Sicklepod); rate 0.0315 kg/ha): 1.0
herbicidal rating CASOB (CASOB (Sicklepod); rate 0.0630 kg/ha): 1.0
herbicidal rating ABUTH (ABUTH (Velvetleaf); rate 0.0158 kg/ha): 9.0
herbicidal rating ABUTH (ABUTH (Velvetleaf); rate 0.0315 kg/ha): 9.0
herbicidal rating ABUTH (ABUTH (Velvetleaf); rate 0.0630 kg/ha): 9.0
Preemergence herbicidal rating TRZAWR ([2]; rate 0.0156 kg/ha): 0.0
Preemergence herbicidal rating TRZAWR ([2]; rate 0.0313 kg/ha): 0.0
Preemergence herbicidal rating TRZAWR ([2]; rate 0.0625 kg/ha): 0.0
Preemergence herbicidal rating TRZAWR ([2]; rate 0.1250 kg/ha): 0.0
Preemergence herbicidal rating TRZAWR ([2]; rate 0.2500 kg/ha): 0.0
herbicidal effect rating, SAGPY ([3]; 0.0313 kg/ha): 0.0
herbicidal effect rating, SAGPY ([3]; 0.0625 kg/ha): 0.0
herbicidal effect rating, SAGPY ([3]; 0.1250 kg/ha): 0.0
herbicidal effect rating, SAGPY ([3]; 0.2500 kg/ha): 0.0
herbicidal rating ECHCG (ECHCG (Barnyardgrass); rate 0.0158 kg/ha): 1.0
herbicidal rating ECHCG (ECHCG (Barnyardgrass); rate 0.0315 kg/ha): 2.0
herbicidal rating ECHCG (ECHCG (Barnyardgrass); rate 0.0630 kg/ha): 1.0
Preemergence herbicidal rating ORYSAT (ORYSAT (Rice, Tebonnet); rate 0.0156 kg/ha): 0.0
Preemergence herbicidal rating ORYSAT (ORYSAT (Rice, Tebonnet); rate 0.0313 kg/ha): 0.0
Preemergence herbicidal rating ORYSAT (ORYSAT (Rice, Tebonnet); rate 0.0625 kg/ha): 0.0
Preemergence herbicidal rating ORYSAT (ORYSAT (Rice, Tebonnet); rate 0.1250 kg/ha): 0.0
Preemergence herbicidal rating ORYSAT (ORYSAT (Rice, Tebonnet); rate 0.2500 kg/ha): 0.0
herbicidal rating ZEAMX (ZEAMX (Corn, Field); rate 0.0158 kg/ha): 4.5
herbicidal rating ZEAMX (ZEAMX (Corn, Field); rate 0.0315 kg/ha): 5.0
herbicidal rating ZEAMX (ZEAMX (Corn, Field); rate 0.0630 kg/ha): 5.0
herbicidal rating TRZAWR ([4]; rate 0.0158 kg/ha): 3.0
herbicidal rating TRZAWR ([4]; rate 0.0315 kg/ha): 3.5
herbicidal rating TRZAWR ([4]; rate 0.0630 kg/ha): 3.5
herbicidal effect rating, CYPSE (CYPSE (Flatsedge); 0.0625 kg/ha): 7.0
herbicidal effect rating, CYPSE (CYPSE (Flatsedge); 0.1250 kg/ha): 9.0
herbicidal effect rating, CYPSE (CYPSE (Flatsedge); 0.2500 kg/ha): 9.0
Preemergence herbicidal rating GLXMAW ([5]; rate 0.0156 kg/ha): 0.0
Preemergence herbicidal rating GLXMAW ([5]; rate 0.0313 kg/ha): 0.0
Preemergence herbicidal rating GLXMAW ([5]; rate 0.0625 kg/ha): 1.0
Preemergence herbicidal rating GLXMAW ([5]; rate 0.1250 kg/ha): 1.0
Preemergence herbicidal rating GLXMAW ([5]; rate 0.2500 kg/ha): 1.0
herbicidal effect rating, MOOVA (MOOVA (Monochoria); 0.0313 kg/ha): 6.0
herbicidal effect rating, MOOVA (MOOVA (Monochoria); 0.0625 kg/ha): 7.0
herbicidal effect rating, MOOVA (MOOVA (Monochoria); 0.1250 kg/ha): 9.0
herbicidal effect rating, MOOVA (MOOVA (Monochoria); 0.2500 kg/ha): 9.0
